Reference: patent publication US20260297085A1, “1 H-PYRROLO[2,3-B]PYRIDIN-4-YL]-2-OXOPYRROLIDINE-3-CARBONITRILE DERIVATIVES AS TYROSINE KINASE 2 (TYK2) INHIBITORS FOR THE TREATMENT OF INFLAMMATORY DISEASES” (BIOGEN MA INC., priority 2023, published 2026)

Key:
[1] = target: JAK2 kinase activity on STAT5 in TF1 cells (Homo sapiens, UniProt O60674); assay: pSTAT5 cell assay (MSD; TF1 cells, 30 ng/mL IL-3 stimulation); assay type: cell-based; settings: 30 ng/mL IL-3, 15 minutes
How it was run: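 IC50 from a 4-parameter logistic fit of normalized pSTAT5 signal, measured by MSD in lysates of TF1 cells. Cells were serum-starved, exposed to compound for 1 h (top concentration 10 μM, four-fold, 10 points), then given IL-3 at 30 ng/mL for 15 min.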

[2] = target: T1, human JAK1 kinase domain (JH1) (Homo sapiens, UniProt P23458); assay: JH1 biochemical assay for JAK1 (ADP-Glo kinase assay, recombinant JH1 catalytic domain, JAK3-342 peptide, 35 μM ATP); settings: JAK1 JH1, ADP-Glo
T1 construct: recombinantly generated catalytic kinase (also known as JH1) domain of human JAK1, JAK2, JAK3 and TYK2
How it was run: (§1)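 Reactions ran 100 min with 50 μM substrate peptide (JAK3-342 for JAK1 at 4 nM enzyme; JAK3-974 for JAK2 0.2 nM, JAK3 0.3 nM, TYK2 2 nM), and ADP formed was read by ADP-Glo luminescence. Eleven-point 3-fold series from 10 or 1 μM; IC50 fitted by 4-parameter logistic model.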

[3] = target: Tyk2 kinase activity on STAT4 in NK92 cells (Homo sapiens, UniProt P29597); assay: pSTAT4 cell assay (MSD; NK92 cells, 30 ng/mL IL2 stimulation); assay type: cell-based; settings: 30 ng/mL IL2, 15 minutes
How it was run: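 Cells natively expressing STAT4 and Tyk2 (NK92) are serum-starved to lower background phosphorylation, exposed to compound for 1 hr over a 10-point four-fold series starting at 10 μM, and stimulated with 30 ng/mL IL2 for 15 minutes. Phosphorylation is quantified on MSD with anti-STAT4 antibodies.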

[4] = target: JAK1 kinase activity on STAT3 in TF1 cells (Homo sapiens, UniProt P23458); assay: pSTAT3 cell assay (MSD; TF1 cells, 30 ng/mL IL-6 stimulation); assay type: cell-based; settings: 30 ng/mL IL-6, 15 minutes
How it was run: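 IC50 values reflect 4-parameter logistic fits of normalized pSTAT3 signal, measured by MSD in lysed TF1 cells. Cells were serum-starved and treated with compound for 1 h (top concentration 10 μM) before a 15 min IL-6 challenge.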

[5] = target: T2, human JAK2 kinase domain (JH1) (Homo sapiens, UniProt O60674); assay: JH1 biochemical assay for JAK2 (ADP-Glo kinase assay, recombinant JH1 catalytic domain, JAK3-974 peptide, 15 μM ATP); settings: JAK2 JH1, ADP-Glo
T2 construct: recombinantly generated catalytic kinase (also known as JH1) domain of human JAK1, JAK2, JAK3 and TYK2
How it was run: as §1

[6] = target: T3, human TYK2 kinase domain (JH1) (Homo sapiens, UniProt P29597); assay: JH1 biochemical assay for TYK2 (ADP-Glo kinase assay, recombinant JH1 catalytic domain, JAK3-974 peptide, 10 μM ATP); settings: TYK2 JH1, ADP-Glo
T3 construct: recombinantly generated catalytic kinase (also known as JH1) domain of human JAK1, JAK2, JAK3 and TYK2
T3 sequence (P29597 897-1176 limits assumed): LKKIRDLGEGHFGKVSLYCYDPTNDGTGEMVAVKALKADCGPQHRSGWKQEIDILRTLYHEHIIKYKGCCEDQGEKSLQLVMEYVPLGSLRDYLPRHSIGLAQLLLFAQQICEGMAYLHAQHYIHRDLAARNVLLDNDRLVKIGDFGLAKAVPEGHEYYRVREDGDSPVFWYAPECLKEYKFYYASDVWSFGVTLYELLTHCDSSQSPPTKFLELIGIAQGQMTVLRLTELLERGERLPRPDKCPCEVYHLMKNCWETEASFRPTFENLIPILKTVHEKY
How it was run: as §1

[7] = target: T4, human JAK3 kinase domain (JH1) (Homo sapiens, UniProt P52333); assay: JH1 biochemical assay for JAK3 (ADP-Glo kinase assay, recombinant JH1 catalytic domain, JAK3-974 peptide, 4 μM ATP); settings: JAK3 JH1, ADP-Glo
T4 construct: recombinantly generated catalytic kinase (also known as JH1) domain of human JAK1, JAK2, JAK3 and TYK2
How it was run: as §1

Sequence of JAK2 kinase activity on STAT5 in TF1 cells (O60674 whole entry): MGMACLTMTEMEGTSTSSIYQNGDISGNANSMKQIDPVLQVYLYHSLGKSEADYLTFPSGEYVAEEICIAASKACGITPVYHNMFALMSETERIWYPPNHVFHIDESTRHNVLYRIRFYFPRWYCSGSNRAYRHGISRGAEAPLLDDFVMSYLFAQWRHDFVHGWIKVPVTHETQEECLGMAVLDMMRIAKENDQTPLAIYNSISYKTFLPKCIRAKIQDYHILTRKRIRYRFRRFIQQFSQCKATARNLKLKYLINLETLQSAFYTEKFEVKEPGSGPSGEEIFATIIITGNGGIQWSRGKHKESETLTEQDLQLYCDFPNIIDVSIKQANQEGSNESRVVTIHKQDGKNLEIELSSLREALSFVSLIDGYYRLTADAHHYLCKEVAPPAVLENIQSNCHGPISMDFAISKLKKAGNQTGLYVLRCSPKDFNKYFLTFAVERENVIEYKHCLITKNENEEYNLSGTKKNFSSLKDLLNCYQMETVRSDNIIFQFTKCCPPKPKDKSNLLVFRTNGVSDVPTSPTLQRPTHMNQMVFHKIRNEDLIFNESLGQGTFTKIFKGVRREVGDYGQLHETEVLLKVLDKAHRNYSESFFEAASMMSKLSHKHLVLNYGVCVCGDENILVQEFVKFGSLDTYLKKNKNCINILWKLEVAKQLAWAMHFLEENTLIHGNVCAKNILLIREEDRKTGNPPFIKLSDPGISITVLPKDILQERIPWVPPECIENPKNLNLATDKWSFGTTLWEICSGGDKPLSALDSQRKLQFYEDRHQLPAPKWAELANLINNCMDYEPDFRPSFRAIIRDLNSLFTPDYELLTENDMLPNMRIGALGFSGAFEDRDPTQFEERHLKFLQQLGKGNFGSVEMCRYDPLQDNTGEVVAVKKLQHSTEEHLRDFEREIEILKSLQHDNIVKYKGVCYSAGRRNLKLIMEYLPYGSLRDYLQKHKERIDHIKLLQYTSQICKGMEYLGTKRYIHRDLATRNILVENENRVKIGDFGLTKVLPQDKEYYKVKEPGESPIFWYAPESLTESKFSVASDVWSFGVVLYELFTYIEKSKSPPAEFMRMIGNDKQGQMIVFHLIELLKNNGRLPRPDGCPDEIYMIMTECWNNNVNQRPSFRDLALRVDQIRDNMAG
T1 sequence (P23458 875-1153 limits assumed): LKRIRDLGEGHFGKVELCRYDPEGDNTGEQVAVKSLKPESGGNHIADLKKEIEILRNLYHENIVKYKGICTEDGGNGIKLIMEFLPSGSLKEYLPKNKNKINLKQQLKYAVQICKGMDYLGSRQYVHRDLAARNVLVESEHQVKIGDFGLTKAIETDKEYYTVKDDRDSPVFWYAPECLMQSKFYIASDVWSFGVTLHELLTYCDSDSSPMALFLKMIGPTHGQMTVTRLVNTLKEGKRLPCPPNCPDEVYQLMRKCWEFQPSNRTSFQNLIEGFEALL
T2 sequence (O60674 849-1124 limits assumed): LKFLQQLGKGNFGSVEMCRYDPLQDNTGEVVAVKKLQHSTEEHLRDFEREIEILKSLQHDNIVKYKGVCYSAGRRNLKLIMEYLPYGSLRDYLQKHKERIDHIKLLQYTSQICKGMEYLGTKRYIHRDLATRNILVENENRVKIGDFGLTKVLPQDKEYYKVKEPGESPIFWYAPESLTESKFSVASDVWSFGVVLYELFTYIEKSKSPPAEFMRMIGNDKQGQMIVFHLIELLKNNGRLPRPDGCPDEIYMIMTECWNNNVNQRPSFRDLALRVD
Sequence of JAK1 kinase activity on STAT3 in TF1 cells (P23458 whole entry): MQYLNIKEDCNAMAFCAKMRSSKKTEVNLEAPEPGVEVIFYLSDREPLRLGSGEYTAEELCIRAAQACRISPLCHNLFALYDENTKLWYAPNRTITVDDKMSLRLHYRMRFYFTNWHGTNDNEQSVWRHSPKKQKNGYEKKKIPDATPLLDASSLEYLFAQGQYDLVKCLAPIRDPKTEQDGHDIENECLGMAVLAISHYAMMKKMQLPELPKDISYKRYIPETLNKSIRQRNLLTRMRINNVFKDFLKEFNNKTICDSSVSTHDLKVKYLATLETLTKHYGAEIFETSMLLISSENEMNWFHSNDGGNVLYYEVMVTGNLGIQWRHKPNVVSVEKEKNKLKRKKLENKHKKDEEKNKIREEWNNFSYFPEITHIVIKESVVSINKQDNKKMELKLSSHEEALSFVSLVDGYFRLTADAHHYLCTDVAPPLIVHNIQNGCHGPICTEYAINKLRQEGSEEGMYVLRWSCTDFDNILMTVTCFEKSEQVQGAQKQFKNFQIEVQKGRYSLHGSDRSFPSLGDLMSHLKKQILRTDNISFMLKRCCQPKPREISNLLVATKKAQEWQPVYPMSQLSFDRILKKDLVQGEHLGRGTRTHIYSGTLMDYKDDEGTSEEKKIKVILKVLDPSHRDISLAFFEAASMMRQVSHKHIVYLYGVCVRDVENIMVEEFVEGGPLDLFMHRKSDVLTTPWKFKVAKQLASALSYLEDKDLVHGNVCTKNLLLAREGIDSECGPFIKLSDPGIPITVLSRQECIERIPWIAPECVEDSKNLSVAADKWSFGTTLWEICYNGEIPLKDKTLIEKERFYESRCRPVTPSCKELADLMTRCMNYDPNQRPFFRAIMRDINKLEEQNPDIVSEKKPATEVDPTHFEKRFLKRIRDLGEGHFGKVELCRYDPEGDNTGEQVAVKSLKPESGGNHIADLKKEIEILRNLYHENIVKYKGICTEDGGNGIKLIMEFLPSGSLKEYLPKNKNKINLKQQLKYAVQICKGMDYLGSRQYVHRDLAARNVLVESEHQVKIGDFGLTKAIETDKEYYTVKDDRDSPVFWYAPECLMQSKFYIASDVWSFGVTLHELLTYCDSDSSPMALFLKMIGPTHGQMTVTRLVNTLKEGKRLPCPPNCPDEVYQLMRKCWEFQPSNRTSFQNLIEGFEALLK
T4 sequence (P52333 822-1111 limits assumed): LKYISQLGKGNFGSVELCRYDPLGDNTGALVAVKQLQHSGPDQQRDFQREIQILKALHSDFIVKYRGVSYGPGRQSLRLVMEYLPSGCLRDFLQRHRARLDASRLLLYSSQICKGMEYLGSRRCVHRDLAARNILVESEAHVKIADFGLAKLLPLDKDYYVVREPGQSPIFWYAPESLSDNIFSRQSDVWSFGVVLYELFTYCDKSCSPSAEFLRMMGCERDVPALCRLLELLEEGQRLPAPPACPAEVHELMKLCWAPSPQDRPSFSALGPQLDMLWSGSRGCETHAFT
Sequence of Tyk2 kinase activity on STAT4 in NK92 cells (P29597 whole entry): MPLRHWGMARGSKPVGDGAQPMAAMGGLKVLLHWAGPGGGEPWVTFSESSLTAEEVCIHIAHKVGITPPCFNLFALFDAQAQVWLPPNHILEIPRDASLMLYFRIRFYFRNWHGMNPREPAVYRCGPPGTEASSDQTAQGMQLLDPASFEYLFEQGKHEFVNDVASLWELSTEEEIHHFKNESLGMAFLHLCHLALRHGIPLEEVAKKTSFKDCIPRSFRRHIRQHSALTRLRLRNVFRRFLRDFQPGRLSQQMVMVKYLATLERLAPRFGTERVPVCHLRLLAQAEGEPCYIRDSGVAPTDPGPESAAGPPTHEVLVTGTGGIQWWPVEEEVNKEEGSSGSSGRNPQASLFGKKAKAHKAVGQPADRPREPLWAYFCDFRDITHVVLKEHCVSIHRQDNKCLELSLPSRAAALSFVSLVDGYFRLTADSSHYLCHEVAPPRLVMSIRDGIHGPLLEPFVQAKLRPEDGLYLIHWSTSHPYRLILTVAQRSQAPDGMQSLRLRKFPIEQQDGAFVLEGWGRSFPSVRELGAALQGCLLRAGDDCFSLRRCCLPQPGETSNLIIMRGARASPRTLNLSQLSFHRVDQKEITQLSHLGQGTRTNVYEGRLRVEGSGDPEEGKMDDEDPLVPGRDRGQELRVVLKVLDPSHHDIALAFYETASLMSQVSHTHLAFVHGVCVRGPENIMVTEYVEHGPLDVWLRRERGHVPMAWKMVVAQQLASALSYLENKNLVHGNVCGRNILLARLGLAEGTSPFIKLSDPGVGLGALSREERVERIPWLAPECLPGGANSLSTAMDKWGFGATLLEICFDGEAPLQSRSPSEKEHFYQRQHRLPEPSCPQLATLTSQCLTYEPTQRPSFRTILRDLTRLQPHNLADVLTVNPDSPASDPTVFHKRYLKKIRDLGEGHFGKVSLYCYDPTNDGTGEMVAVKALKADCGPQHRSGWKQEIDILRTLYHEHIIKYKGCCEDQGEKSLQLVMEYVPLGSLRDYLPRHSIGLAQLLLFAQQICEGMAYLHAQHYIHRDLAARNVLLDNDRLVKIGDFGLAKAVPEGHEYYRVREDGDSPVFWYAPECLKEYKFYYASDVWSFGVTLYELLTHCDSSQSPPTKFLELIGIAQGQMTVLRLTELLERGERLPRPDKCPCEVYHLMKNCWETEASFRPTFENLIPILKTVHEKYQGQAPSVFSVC

IC50 [1] [µM]	IC50 [2] [µM]	IC50 [3] [µM]	IC50 [4] [µM]	IC50 [5] [µM]	IC50 [6] [µM]	IC50 [7] [µM]	SMILES
0.1 to 1	< 0.1	0.02 to 0.05	0.1 to 1	< 0.1	< 0.005	< 0.1	C[C@@H]1CN(c2nc(-c3cnn(C4CC(F)(F)C4)c3)cn3nccc23)C(=O)[C@]1(C#N)C1CC1 [Example 290, (3R,4S)-3-cyclopropyl-1-(6-(1-(3,3-difluorocyclobutyl)-1H-pyrazol-4-yl)pyrazolo[1,5-a]pyrazin-4-yl)-4-methyl-2-oxopyrrolidine-3-carbonitrile]
1 to 5	< 0.1	0.05 to 0.1	1 to 5	< 0.1	< 0.005	< 0.1	C[C@@H]1CN(c2nc(-c3cnn(C4COC4)c3)cn3ncc(F)c23)C(=O)[C@]1(C#N)C1CC1 [Example 291, (3R,4S)-3-cyclopropyl-1-(3-fluoro-6-(1-(oxetan-3-yl)-1H-pyrazol-4-yl)pyrazolo[1,5-a]pyrazin-4-yl)-4-methyl-2-oxopyrrolidine-3-carbonitrile]
0.1 to 1	< 0.1	0.02 to 0.05	0.1 to 1	< 0.1	< 0.005	< 0.1	C[C@@H]1CN(c2nc(-c3cnn([C@H]4C[C@@H](C#N)C4)c3)cn3ncc(F)c23)C(=O)[C@]1(C#N)C1CC1 [Example 292, (3R,4S)-1-(6-(1-((1s,3S)-3-cyanocyclobutyl)-1H-pyrazol-4-yl)-3-fluoropyrazolo[1,5-a]pyrazin-4-yl)-3-cyclopropyl-4-methyl-2-oxopyrrolidine-3-carbonitrile]
0.1 to 1	< 0.1	0.02 to 0.05	0.1 to 1	< 0.1	< 0.005	< 0.1	C[C@@H]1CN(c2nc(-c3cnn([C@H]4C[C@H](C#N)C4)c3)cn3ncc(F)c23)C(=O)[C@]1(C#N)C1CC1 [Example 293, (3R,4S)-1-(6-(1-((1r,3R)-3-cyanocyclobutyl)-1H-pyrazol-4-yl)-3-fluoropyrazolo[1,5-a]pyrazin-4-yl)-3-cyclopropyl-4-methyl-2-oxopyrrolidine-3-carbonitrile]
0.1 to 1	< 0.1	0.02 to 0.05	0.1 to 1	< 0.1	< 0.005	< 0.1	C[C@@H]1CN(c2nc(-c3cnn(-c4cccnc4)c3)cn3nccc23)C(=O)[C@]1(C#N)C1CC1 [Example 294, (3R,4S)-3-cyclopropyl-4-methyl-2-oxo-1-(6-(1-(pyridin-3-yl)-1H-pyrazol-4-yl)pyrazolo[1,5-a]pyrazin-4-yl)pyrrolidine-3-carbonitrile]
0.1 to 1	< 0.1	0.02 to 0.05	0.1 to 1	< 0.1	< 0.005	< 0.1	C[C@@H]1CN(c2nc(-c3cnn(-c4ccncc4)c3)cn3nccc23)C(=O)[C@]1(C#N)C1CC1 [Example 295, (3R,4S)-3-cyclopropyl-4-methyl-2-oxo-1-(6-(1-(pyridin-4-yl)-1H-pyrazol-4-yl)pyrazolo[1,5-a]pyrazin-4-yl)pyrrolidine-3-carbonitrile]
1 to 5	< 0.1	0.02 to 0.05	0.1 to 1	0.1 to 1	< 0.005	< 0.1	C[C@@H]1CN(c2nc(-c3cnn(-c4ccccn4)c3)cn3nccc23)C(=O)[C@]1(C#N)C1CC1 [Example 296, (3R,4S)-3-cyclopropyl-4-methyl-2-oxo-1-(6-(1-(pyridin-2-yl)-1H-pyrazol-4-yl)pyrazolo[1,5-a]pyrazin-4-yl)pyrrolidine-3-carbonitrile]
1 to 5	< 0.1	> 0.1	1 to 5	< 0.1	< 0.005	< 0.1	C[C@@H]1CN(c2nc(-c3cnn(C45CC(C#N)(C4)C5)c3)cn3ncc(F)c23)C(=O)[C@]1(C#N)C1CC1 [Example 297, (3R,4S)-1-(6-(1-(3-cyanobicyclo[1.1.1]pentan-1-yl)-1H-pyrazol-4-yl)-3-fluoropyrazolo[1,5-a]pyrazin-4-yl)-3-cyclopropyl-4-methyl-2-oxopyrrolidine-3-carbonitrile]
0.1 to 1	< 0.1	0.05 to 0.1	0.1 to 1	< 0.1	< 0.005	< 0.1	C[C@@H]1CN(c2nc(-c3cnn(C4CC5(COC5)C4)c3)cn3ncc(F)c23)C(=O)[C@]1(C#N)C1CC1 [Example 298, (3R,4S)-1-(6-(1-(2-oxaspiro[3.3]heptan-6-yl)-1H-pyrazol-4-yl)-3-fluoropyrazolo[1,5-a]pyrazin-4-yl)-3-cyclopropyl-4-methyl-2-oxopyrrolidine-3-carbonitrile]
0.1 to 1	< 0.1	0.05 to 0.1	0.1 to 1	< 0.1	< 0.005	< 0.1	CO[C@H]1C[C@H](n2cc(-c3cn4ncc(F)c4c(N4C[C@@H](C)[C@@](C#N)(C5CC5)C4=O)n3)cn2)C1 [Example 299, (3R,4S)-3-cyclopropyl-1-(3-fluoro-6-(1-((1r,3R)-3-methoxycyclobutyl)-1H-pyrazol-4-yl)pyrazolo[1,5-a]pyrazin-4-yl)-4-methyl-2-oxopyrrolidine-3-carbonitrile]
1 to 5	< 0.1	> 0.1	0.1 to 1	0.1 to 1	< 0.005	< 0.1	C[C@@H]1CN(c2nc(-c3cnn(C4(C)COC4)c3)cn3ncc(F)c23)C(=O)[C@]1(C#N)C1CC1 [Example 300, (3R,4S)-3-cyclopropyl-1-(3-fluoro-6-(1-(3-methyloxetan-3-yl)-1H-pyrazol-4-yl)pyrazolo[1,5-a]pyrazin-4-yl)-4-methyl-2-oxopyrrolidine-3-carbonitrile]
0.1 to 1	< 0.1	0.05 to 0.1	0.1 to 1	< 0.1	< 0.005	< 0.1	C[C@@H]1CN(c2nc(-c3cnn([C@H]4C[C@@](C)(O)C4)c3)cn3ncc(F)c23)C(=O)[C@]1(C#N)C1CC1 [Example 301, (3R,4S)-3-cyclopropyl-1-(3-fluoro-6-(1-((1s,3 S)-3-hydroxy-3-methylcyclobutyl)-1H-pyrazol-4-yl)pyrazolo[1,5-a]pyrazin-4-yl)-4-methyl-2-oxopyrrolidine-3-carbonitrile]
1 to 5	< 0.1	0.05 to 0.1	0.1 to 1	< 0.1	< 0.005	< 0.1	C[C@@H]1CN(c2nc(-c3cnn(CC4(C#N)CC4)c3)cn3ncc(F)c23)C(=O)[C@]1(C#N)C1CC1 [Example 302, (3R,4S)-1-(6-(1-((1-cyanocyclopropyl)methyl)-1H-pyrazol-4-yl)-3-fluoropyrazolo[1,5-a]pyrazin-4-yl)-3-cyclopropyl-4-methyl-2-oxopyrrolidine-3-carbonitrile]
1 to 5	< 0.1	0.05 to 0.1	0.1 to 1	< 0.1	< 0.005	< 0.1	C[C@@H]1CN(c2nc(-c3cnn(CC4COC4)c3)cn3ncc(F)c23)C(=O)[C@]1(C#N)C1CC1 [Example 304, (3R,4S)-3-cyclopropyl-1-(3-fluoro-6-(1-(oxetan-3-ylmethyl)-1H-pyrazol-4-yl)pyrazolo[1,5-a]pyrazin-4-yl)-4-methyl-2-oxopyrrolidine-3-carbonitrile]
1 to 5	< 0.1	0.05 to 0.1	0.1 to 1	< 0.1	< 0.005	< 0.1	C[C@@H]1CN(c2nc(-c3cnn([C@H]4C[C@@](C)(C#N)C4)c3)cn3ncc(F)c23)C(=O)[C@]1(C#N)C1CC1 [Example 307, (3R,4S)-1-(6-(1-((1s,3S)-3-cyano-3-methylcyclobutyl)-1H-pyrazol-4-yl)-3-fluoropyrazolo[1,5-a]pyrazin-4-yl)-3-cyclopropyl-4-methyl-2-oxopyrrolidine-3-carbonitrile]
